We go through 11 molecules from US12521393B2, “Cytotoxicity targeting chimeras for CCR2-expressing cells” (GLAXOSMITHKLINE INTELLECTUAL PROPERTY DEVELOPMENT LIMITED, priority 2021, dated 2026).

Where a name gives a salt, the structure may show the parent alone.

For assay [1], the system named is CCR2 expressing cells (CD11b+Ly6c+Hi) in peripheral blood. Briefly: In vivo depletion assay, flow cytometry of peripheral blood (Example 201). The following applies: hCCR2 knock-in mice, IV 0.1 mpk compound + 10 mpk anti-cotinine antibody (SEQ ID NO: 13/14), peripheral blood at 48 hr. The arrangement: species or system human CCR2 knock-in mice (C57 background). On the procedure: Stock solution preparation. Stock solutions of compounds of Formula (I) were prepared at 20 mg/mL and 100 mg/mL in […] for PK/PD and dose tolerability studies respectively. Stock solutions were stored at […] until further usage. on the day of experiment, the stock Solution of the compound of Formula (I) was removed from storage at […] and thawed at room temperature. Anti-cotinine antibody having a heavy chain sequence of SEC ID NO: 13 and a light chain sequence of SEQ ID NO: 14 (rabbit variable region sequence with mouse IgG2a Fc domain), if required was removed from storage at −80° C. and thawed at room temperature. Antibody vials were immediately transferred into wet ice after thawing. Compounds of Formula (I) were further diluted in DMSO as per experimental requirements.
The formulation composition was Saline: DMSI: PBS.
Saline was added based on the quantity required and then stock solution of the compound of Formula (I) prepared in DMSO, followed by addition of antibody in PBS. Formulations were incubated at room temperature for 30 minutes before administration to the mouse. DMSO was used at 1 to % (v/v) in the final formulation.
After bleeding, each mouse was sacrificed by cervical dislocation. […] Flow Cytometry Analysis:
CCR2 depletion in peripheral blood was determined by flow cytometry. Briefly, peripheral blood was collected from all animals at the end of study termination and processed. Blood samples were lysed using 1×RBC Lysis buffer and the resulting cell pellet was washed twice in FACS buffer (HBSS containing 5% FBS). Cells were subjected to Fc blocking using mouse Fc block from Biolegend (Trustain, anti-mouse CD16/32, Cat: 101319) to block non-specific binding followed by surface staining for immune markers (CD45, CD3, CD11 b, Ly6C, human CCR2). Surface staining was done for 30 minutes in ice and cells were washed twice to remove unbound antibodies. Cells were stained with 7AAD to determine viability and acquired on BD FACSVerse flow cytometer. Appropriate FMO controls and single-color controls were included in the experiment for gating and compensation respectively.
Percent depletion of CD11 b+Ly6c+Hi cells and CCR2 expression for the different treatment groups was determined.
(In general: Flow cytometry measures light scatter and fluorescence of single cells or particles in a stream.)

Assay [2] relates to endogenous target monocytes in human PBMC. The experiment in a line: PBMC ex vivo monocyte depletion flow cytometry assay (Example 200). The note with it: with anti-cotinine antibody (SEQ ID NO: 11/12), 18-24 hours, EC50 in molar, read-out: Ex Vivo Depletion Assay pEC50 (converted). In kind it is cell-based. In short, it runs like this: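 Monocyte depletion is reported as pEC50, averaged or given individually across runs, and read by flow cytometry staining CD45, CD14 and CD4 with a viability dye. Compounds, diluted four-fold over 11 points from 1 mM DMSO stocks, were combined with 30 μg/mL Fc-enhanced anti-cotinine antibody and human PBMC, then incubated 18-24 h at 37° C.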

With `CC(C)N(C)[C@@H]1CC[C@H](N2CC[C@H](Nc3ncnc4ccc(C(F)(F)F)cc34)C2=O)[C@H](NC(=O)[C@H]2CC[C@@H](NC(=O)COCCOCCNC(=O)CCNC(=O)[C@H]3CC(=O)N(C)[C@@H]3c3cccnc3)CC2)C1` [Example 82, (2S,3S)-N-(3-((2-(2-(2-(((1S,4s)-4-(((1R,2S,5R)-5-(Isopropyl(methyl)amino)-2-((S)-2-oxo-3-((6-(trifluoromethyl)quinazolin-4-yl)amino)pyrrolidin-1-yl)cyclohexyl)carbamoyl)cyclohexyl)amino)-2-oxoethoxy)ethoxy)ethyl)amino)-3-oxopropyl)-1-methyl-5-oxo-2-(pyridin-3-yl)pyrrolidine-3-carboxamide], in assay [1], the “% Depletion of CCR2 expressing cells” value turned out to be 94%. Further, the EC50 in assay [2] was 501 pM.
For the molecule `CC(C)N(C)[C@@H]1CC[C@H](N2CC[C@H](Nc3ncnc4ccc(C(F)(F)F)cc34)C2=O)[C@H](NC(=O)CCc2ccc(C3CCN(C(=O)CCCCCNC(=O)[C@H]4CC(=O)N(C)[C@@H]4c4cccnc4)CC3)cc2)C1` [Example 86, (2S,3S)-N-(6-(4-(4-(3-(((1R,2S,5R)-5-(Isopropyl(methyl)amino)-2-((S)-2-oxo-3-((6-(trifluoromethyl)quinazolin-4-yl)amino)pyrrolidin-1-yl)cyclohexyl)amino)-3-oxopropyl)phenyl)piperidin-1-yl)-6-oxohexyl)-1-methyl-5-oxo-2-(pyridin-3-yl)pyrrolidine-3-carboxamide], the “% Depletion of CCR2 expressing cells” value in assay [1] stood at 25.67%. Also, the EC50 in assay [2] was 158 pM.
In the case of `CC(C)N(C)[C@@H]1CC[C@H](N2CC[C@H](Nc3ncnc4ccc(C(F)(F)F)cc34)C2=O)[C@H](NC(=O)C2CCN(C3CCN(CCOCCOCCNC(=O)[C@H]4CC(=O)N(C)[C@@H]4c4cccnc4)CC3)CC2)C1` [Example 90, N-((1R,2S,5R)-5-(Isopropyl(methyl)amino)-2-((S)-2-oxo-3-((6-(trifluoromethyl)quinazolin-4-yl)amino)pyrrolidin-1-yl)cyclohexyl)-1′-(2-(2-(2-((2S,3S)-1-methyl-5-oxo-2-(pyridin-3-yl)pyrrolidine-3-carboxamido)ethoxy)ethoxy)ethyl)-[1,4′-bipiperidine]-4-carboxamide], in assay [1], the “% Depletion of CCR2 expressing cells” value was determined as 87.57%. Also, the EC50 in assay [2] is 1580 pM.
For the molecule `CN1C(=O)C[C@H](C(=O)NCCOCC(=O)NCCOCC(=O)N[C@H]2CC[C@@H](C(=O)N[C@@H]3C[C@H](NC(C)(C)C)CC[C@@H]3N3CC[C@H](Nc4ncnc5ccc(C(F)(F)F)cc45)C3=O)CC2)[C@H]1c1cccnc1` [Example 100, (2S,3S)-N-(2-(2-((2-(2-(((1S,4s)-4-(((1R,2S,5R)-5-(tert-Butylamino)-2-((S)-2-oxo-3-((6-(trifluoromethyl)quinazolin-4-yl)amino)pyrrolidin-1-yl)cyclohexyl)carbamoyl)cyclohexyl)amino)-2-oxoethoxy)ethyl)amino)-2-oxoethoxy)ethyl)-1-methyl-5-oxo-2-(pyridin-3-yl)pyrrolidine-3-carboxamide], the “% Depletion of CCR2 expressing cells” value in assay [1] was found to be 74%. Moreover, the EC50 in assay [2] is 1260 pM.
Taken in the same sequence, the figures for `CC(C)N(C)[C@@H]1CC[C@H](N2CC[C@H](Nc3ncnc4ccc(C(F)(F)F)cc34)C2=O)[C@H](NC(=O)CNC(=O)[C@H]2CC[C@@H](NC(=O)COCCOCCNC(=O)[C@H]3CC(=O)N(C)[C@@H]3c3cccnc3)CC2)C1` [Example 136, (2S,3S)-N-(2-(2-(2-(((1S,4R)-4-((2-(((1R,2S,5R)-5-(Isopropyl(methyl)amino)-2-((S)-2-oxo-3-((6-(trifluoromethyl)quinazolin-4-yl)amino)pyrrolidin-1-yl)cyclohexyl)amino)-2-oxoethyl)carbamoyl)cyclohexyl)amino)-2-oxoethoxy)ethoxy)ethyl)-1-methyl-5-oxo-2-(pyridin-3-yl)pyrrolidine-3-carboxamide] were 88% and 10000 pM.
In the same order, the values of `CC(C)N(C)[C@@H]1CC[C@H](N2CC[C@H](Nc3ncnc4ccc(C(F)(F)F)cc34)C2=O)[C@H](NC(=O)C2CCN(CCCCCCCCNC(=O)[C@H]3CC(=O)N(C)[C@@H]3c3cccnc3)CC2)C1` [Example 144, N-((1R,2S,5R)-5-(Isopropyl(methyl)amino)-2-((S)-2-oxo-3-((6-(trifluoromethyl)quinazolin-4-yl)amino)pyrrolidin-1-yl)cyclohexyl)-1-(8-((2S,3S)-1-methyl-5-oxo-2-(pyridin-3-yl)pyrrolidine-3-carboxamido)octyl)piperidine-4-carboxamide, 3Formic acid salt] are 85.67% and 501 pM.
Taken in the same sequence, the figures for `CC(C)N(C)[C@@H]1CC[C@H](N2CC[C@H](Nc3ncnc4ccc(C(F)(F)F)cc34)C2=O)[C@H](NC(=O)[C@H]2CC[C@H](N3CCN(CCCCCCCCNC(=O)[C@H]4CC(=O)N(C)[C@@H]4c4cccnc4)CC3)CC2)C1` [Example 146, (2S,3S)-N-(8-(4-((1R,4r)-4-(((1R,2S,5R)-5-(Isopropyl(methyl)amino)-2-((S)-2-oxo-3-((6-(trifluoromethyl)quinazolin-4-yl)amino)pyrrolidin-1-yl)cyclohexyl)carbamoyl)cyclohexyl)piperazin-1-yl)octyl)-1-methyl-5-oxo-2-(pyridin-3-yl)pyrrolidine-3-carboxamide] were 83.08% and 316 pM.
For `CC(C)N(C)[C@@H]1CC[C@H](N2CC[C@H](Nc3ncnc4ccc(C(F)(F)F)cc34)C2=O)[C@H](NC(=O)C2CCN(CCOCCOCCOCCOCCNC(=O)[C@H]3CC(=O)N(C)[C@@H]3c3cccnc3)CC2)C1` [Example 147], the “% Depletion of CCR2 expressing cells” value in assay [1] is 77%. Further, in assay [2], the EC50 was 631 pM.
On to `CC(C)N(C)[C@@H]1CC[C@H](N2CC[C@H](Nc3ncnc4ccc(C(F)(F)F)cc34)C2=O)[C@H](NC(=O)[C@H]2CC[C@@H](C(=O)NCCCN3CCN(CCCNC(=O)[C@H]4CC(=O)N(C)[C@@H]4c4cccnc4)CC3)CC2)C1` [Example 150, (1 s,4S)-N^1-((1R,2S,5R)-5-(Isopropyl(methyl)amino)-2-((S)-2-oxo-3-((6-(trifluoromethyl)quinazolin-4-yl)amino)pyrrolidin-1-yl)cyclohexyl)-N^4-(3-(4-(3-((2S,3S)-1-methyl-5-oxo-2-(pyridin-3-yl)pyrrolidine-3-carboxamido)propyl)piperazin-1-yl)propyl)cyclohexane-1,4-dicarboxamide], for which the “% Depletion of CCR2 expressing cells” value in assay [1] was determined as 85.52%. For the same molecule, in assay [2], the EC50 is 1000 pM.
Consider `CC(C)N(C)[C@@H]1CC[C@H](N2CC[C@H](Nc3ncnc4ccc(C(F)(F)F)cc34)C2=O)[C@H](NC(=O)[C@H]2CC[C@H](N3CCN(C(=O)CCCCCCCCNC(=O)[C@H]4CC(=O)N(C)[C@@H]4c4cccnc4)CC3)CC2)C1` [Example 155, (2S,3S)-N-(9-(4-((1R,4r)-4-(((1R,2S,5R)-5-(Isopropyl(methyl)amino)-2-((S)-2-oxo-3-((6-(trifluoromethyl)quinazolin-4-yl)amino)pyrrolidin-1-yl)cyclohexyl)carbamoyl)cyclohexyl)piperazin-1-yl)-9-oxononyl)-1-methyl-5-oxo-2-(pyridin-3-yl)pyrrolidine-3-carboxamide], for which the “% Depletion of CCR2 expressing cells” value in assay [1] is recorded as 70%. Also, in assay [2], the EC50 is 251 pM.
For `CC(C)N(C)[C@@H]1CC[C@H](N2CC[C@H](Nc3ncnc4ccc(C(F)(F)F)cc34)C2=O)[C@H](NC(=O)CCCCOCCCCCCCCOCCCCNC(=O)[C@H]2CC(=O)N(C)[C@@H]2c2cccnc2)C1` [Example 161, (2S,3S)-N-(4-((8-((5-(((1R,2S,5R)-5-(Isopropyl(methyl)amino)-2-((S)-2-oxo-3-((6-(trifluoromethyl)quinazolin-4-yl)amino)pyrrolidin-1-yl)cyclohexyl)amino)-5-oxopentyl)oxy)octyl)oxy)butyl)-1-methyl-5-oxo-2-(pyridin-3-yl)pyrrolidine-3-carboxamide], the “% Depletion of CCR2 expressing cells” value in assay [1] came out at 76.67%. The EC50 in assay [2] is 794 pM.
